According to patent US20260241049A1, “Radiopharmaceutical Compositions Targeting Glypican-3 and Uses Thereof” (RayzeBio, Inc., priority 2023, published 2026):
One block for each compound: values may come before it. Positions of bridges follow the written chain, without caps; N, C: chain ends. Non-standard residues stand in square brackets, D forms with d. Residues, ends and D or L forms follow the SMILES beside them. NMeAla(isoquinolin-7-yl) = CN[C@@H](Cc1ccc2ccncc2c1)C(=O)O; 3Pal(6-Ph) = N[C@@H](Cc1ccc(-c2ccccc2)nc1)C(=O)O; Phe(4-COOH) = N[C@@H](Cc1ccc(C(=O)O)cc1)C(=O)O; NMeQ = CN[C@@H](CCC(N)=O)C(=O)O; NMehSer = CN[C@@H](CCO)C(=O)O; NMeK = CN[C@@H](CCCCN)C(=O)O; NMeC = CN[C@@H](CS)C(=O)O

How the values were obtained:
Human Glypican3-Fc = Human Glypican3-Fc (Homo sapiens, UniProt P51654); assay: SPR binding to Glypican-3, Method B-4 (Glypican3-Fc on Protein A chip, peptide 40 nM); settings: SPR method B-4, peptide 40 nM
Human Glypican3-Fc, sequence (P51654 with tags, fused parts or gaps limits assumed): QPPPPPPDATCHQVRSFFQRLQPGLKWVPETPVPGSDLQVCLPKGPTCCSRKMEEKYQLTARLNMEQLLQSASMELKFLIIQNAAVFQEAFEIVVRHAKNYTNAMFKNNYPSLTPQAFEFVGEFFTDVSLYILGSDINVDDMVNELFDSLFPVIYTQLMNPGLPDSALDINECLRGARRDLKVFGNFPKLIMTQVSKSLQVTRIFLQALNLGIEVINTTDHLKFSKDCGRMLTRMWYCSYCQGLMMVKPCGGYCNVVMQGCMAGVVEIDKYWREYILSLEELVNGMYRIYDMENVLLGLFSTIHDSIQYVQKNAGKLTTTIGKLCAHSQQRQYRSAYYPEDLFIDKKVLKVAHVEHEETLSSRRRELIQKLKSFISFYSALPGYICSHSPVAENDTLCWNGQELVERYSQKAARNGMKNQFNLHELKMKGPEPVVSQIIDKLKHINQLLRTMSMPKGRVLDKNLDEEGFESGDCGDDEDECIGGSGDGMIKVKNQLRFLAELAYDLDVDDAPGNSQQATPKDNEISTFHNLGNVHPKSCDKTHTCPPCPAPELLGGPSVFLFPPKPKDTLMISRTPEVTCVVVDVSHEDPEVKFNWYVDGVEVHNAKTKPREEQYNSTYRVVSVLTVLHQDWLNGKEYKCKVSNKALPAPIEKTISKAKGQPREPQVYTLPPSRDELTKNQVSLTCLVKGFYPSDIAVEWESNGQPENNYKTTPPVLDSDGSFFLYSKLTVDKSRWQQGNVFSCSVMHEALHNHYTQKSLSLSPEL
Procedure: A Protein A sensor chip (Cytiva) was inserted into a Biacore T200 (Cytiva), priming was performed three times with a running buffer: HBS-P+, pH 7.4 (Cytiva), and equilibration was carried out at a flow rate of […]. Gly pican3-Fc was allowed to react for 60 seconds at a flow rate of 10 μL/min. After capturing human Glypican3-Fc, a peptide solution prepared to 1 mM in DMSO solution was diluted with a running buffer to a final concentration of 1 μM. After that, the peptide solution was diluted to 40 nM in a similar manner. Using the above samples, peptide kinetics for Glypican3 was obtained by SPR measurement. Kinetics evaluation of Glypican3 was performed by SPR measurements at a flow rate of 30 μL/min. setting the association time to 120 seconds and the disassociation time to 600 seconds.
The obtained data by Method B-1, Method B-2, Method B-3 and Method B-4 were analyzed by follow. Single Cycle Kinetics was used as the kinetics evaluation model, and curve fitting was performed using Biacore T200 Evaluation Software Version 3.0 (Cytiva). The obtained sensorgram was subjected to curve fitting by the method of least squares and obtained KD values of the macrocyclic peptides in this disclosure for Glypican 3 protein are shown in Table 18.

HCC patient = settings: cited from earlier work
[1] = system: late-stage liver cancer patients; settings: phase II clinical trial, 185 late-stage liver cancer patients; cited from earlier work
[2] = system: Huh-7 (glypican 3 expressed on the cell surface); assay: Flow cytometry, biotinylated peptides followed by SAPE, Huh-7; type: cell-based, human; settings: biotinylated peptide at 100 nM followed by SAPE (1:250), on ice; versus SK-Hep1 negative control; FIG. 2
Procedure: (§1) HepG2 (human hepatocellular carcinoma) and SK-HEP-1 (human hepatic adenocarcinoma) cell lines were purchased from the American Type Culture Collection (ATCC; Manassas, VA). Huh-7 (human hepatoblastoma) cell line was purchased from the Japanese Collection of Research Bioresources Cell Bank (JCRB Cell Bank, Osaka, Japan). HepG2 and SK-HEP-1 were grown in EMEM (FUJIFILM Wako Pure Chemical Corporation, 055-08975) with 10% fetal bovine serum (FBS; Thermo Fisher Scientific, 10270106) and 0.1% gentamicin (NACALAI TESQUE, 11980-14). Huh-7 was grown in DMEM (Thermo Fisher Scientific, 10567014) with 10% FBS and 0.1% gentamicin.
(§2) HepG2, SK-HEP-1 and Huh-7 cells were collected from the culture dish and stained with biotinylated peptides at 100 nM followed by Streptavidin, R-Phycoerythrin Conjugate (SAPE: Thermo Fisher Scientific, S866) (1:250). Cells were washed with phosphate-buffered saline (PBS; FUJIFILM Wako Pure Chemical Corporation, 043-29791) containing 0.5% FBS after addition of peptides or SAPE. All staining procedures were performed on ice. Samples were measured using CytoFLEX S (Beckman Coulter) and CytExpert ver2.4 software. All data were analyzed using FlowJo™ (BD Bioscience). For discrimination of live cells from dead cells, SYTOX™ Blue Dead Cell Stain (Thermo Fisher Scientific, S34857) (1:5000) was added prior to measurement.

[3] = system: HepG2 (glypican 3 expressed on the cell surface); assay: Flow cytometry, biotinylated peptides followed by SAPE, HepG2; type: cell-based, human; settings: biotinylated peptide at 100 nM followed by SAPE (1:250), on ice; versus SK-Hep1 negative control; FIG. 1
Procedure: as §1, §2

Kd (Human Glypican3-Fc): 0.23 nM
Compound: CC[C@H](C)[C@@H]1NC(=O)[C@H](Cc2ccc(C(=O)O)cc2)NC(=O)[C@H](CCC(N)=O)N(C)C(=O)[C@H](CC(=O)O)NC(=O)[C@H](CCOC)N(C)C(=O)[C@H](CCCCN)N(C)C(=O)CSC[C@@H](C(N)=O)N(C)C(=O)[C@H](Cc2ccc(-c3ccccc3)nc2)NC(=O)CNC(=O)[C@H](Cc2ccc3ccncc3c2)N(C)C(=O)[C@H](Cc2ccc(O)cc2)NC(=O)[C@H]([C@@H](C)CC)NC1=O [Conjugate 2-61] ({CH2CO}-[NMeK][NMehSer](Me)D[NMeQ][Phe(4-COOH)]IIY[NMeAla(isoquinolin-7-yl)]G[3Pal(6-Ph)][NMeC]-NH2; thioether N-12)

Compound: Codrituzumab
tolerance in phase I clinical trials (HCC patient; phase I clinical trials): good immune tolerance | anti-tumour effect in HCC patient (HCC patient; phase I, advanced hepatocellular carcinoma): anti-tumour effect | therapeutic efficacy compared with the control group [1]: not impressive

Compound: CC[C@H](C)[C@@H]1NC[C@H](Cc2ccc(C(=O)O)cc2)NC(=O)[C@H](CCC(N)=O)N(C)C(=O)[C@H](CC(=O)O)NC(=O)[C@H]([C@@H](C)CC)N(C)C(=O)[C@H](CCCCNC(C)=O)N(C)C(=O)CSC[C@@H](C(=O)NCC(=O)NCCOCCOCCOCCOCCOCCOCCOCCOCCOCCOCCC(=O)N[C@@H](CCCCNC(=O)CCCC[C@@H]2SC[C@@H]3NC(=O)N[C@@H]32)C(N)=O)N(C)C(=O)[C@H](Cc2ccc(-c3ccccc3)nc2)NC(=O)CNC(=O)[C@H](Cc2ccc3ccncc3c2)N(C)C(=O)[C@H](Cc2ccc(O)cc2)NC(=O)[C@H]([C@@H](C)CC)NC1=O [PLB-60]
comparative staining of Huh-7 cells (flow cytometry) [2]: specific binding | comparative staining of HepG2 cells (flow cytometry) [3]: specific binding
